{
  "source": "patent US20120213860A1",
  "about": "“XENON-BASED INHALABLE DRUG FOR TREATING OR PREVENTING INDUCED DYSKINESIA” (L'Air Liquide Societe Anonyme Pour L'Etude Et …, priority 2009, published 2012)",
  "tested_on": "dyskinesias induced by levodopa",
  "experiment": "levodopa-induced abnormal involuntary movements (AIMs) in rats with unilateral 6-OHDA lesions (animal model of Parkinson's disease)",
  "assay_type": "in vivo, Sprague-Dawley rats",
  "protocol": "More precisely, the effects of administering several gases as treatment of dyskinesias were evaluated in rats having lesions produced by unilateral injection of 6-OHDA (6-hydroxydopamine, a powerful neurotoxic) in an ascending nigrostriatal pathway (animal model of Parkinson's disease). In this model, long-term treatment of rats with levodopa induces abnormal involuntary movements (AIMs) that are similar to those in dyskinesias induced by levodopa in humans. The rats with lesions induced by 6-OHDA serving as the model of Parkinson's disease are prepared as follows. 16 Sprague-Dawley rats weighing between 250 and 300 g are kept in a room with controlled temperature (about 22° C.) with day/night cycles of 12 h, with free access to food and water. The animals receive, 30 min before the intervention, an intraperitoneal injection of pargyline (5 mg/kg; inhibitor of monoamine oxidase-B) and of desipramine (25 mg/kg; norepinephrine reuptake inhibitor). The animals are put in an anesthesia chamber with continuous flow of oxygen at 1.5 l/minute and 3% isoflurane. After anesthesia, the animals are placed in a stereotaxic frame. […] The injection site is localized according to the coordinates relative to bregma: −2.8 mm rostral, 2 mm lateral and 9 mm under the cranium (Paxinos and Watson, 1986). The rats are left to recover for 3 weeks after the lesions. The animals receive 0.05 mg/kg s.c. of apomorphine. […] The animals that remain receive an administration of 6 mg/kg of levodopa and 15 mg/kg of benzerazide (i.p.), twice a day, for 21 consecutive days. During these 21 days, the abnormal involuntary movements (AIMs) are assessed on days 1, 7, 14 and 21. The therapeutic treatments begin on day 22. They consist of administering the following to the rats by inhalation: • xenon/O2 gas mixtures (50%/50% by volume) as test gas according to the invention and; • N2/O2 gas mixtures (50%/50% by volume) as control. The gas mixtures are premixtures supplied by Air Liquide™. The gas concentrations are monitored continuously. Exposure to the gases is effected in a Plexiglas chamber with a length of 42 cm, and width and height of 26 cm. Each time, 4 or 5 rats are put in the chamber and inhale the test gas for 1 h. The chamber is supplied with fresh gas at a flow rate of 4 l/min. The abnormal involuntary movements (AIMs) are assessed for 180 min after injection of levodopa. More precisely, the animals are put in boxes (22 cm×34 cm×20 cm) and are left there for 15 minutes for them to become accustomed to their environment. Levodopa methyl ester (6 mg/kg, i.p.) is then administered at time intervals of 1 minute between rats. Each rat is observed for 1 minute at intervals of 30 minutes after injection and for a period of 180 min. Four subtypes of AIMs are assessed, namely: • Locomotor (Lo): increased movements contralateral to the lesion, • Hind limbs (Li): uncontrolled random movements of the hind limbs contralateral to the lesion, • Orolingual (Ol): excessive mastication and jaw movements with tongue protrusion, • Axial (Ax): dystonic postures or choreiform twisting of the neck and of the upper body contralaterally. The severity of the MIAs is scored from 1 to 4 according to the duration of the MIAs over an observation period of one minute: • 0.1=presence of MIAs for less than 30 s • 0.2=presence of MIAs for more than 30 s • 0.3=presence of MIAs during the minute with interruption by external stimuli • 0.4=presence of MIAs during the minute without interruption by external stimuli",
  "key": {"[1]": {"conditions": "parkinsonian rat, xenon/O2 50%/50% by volume inhaled 1 h, vs control N2/O2 50%/50%, amplitude and duration"}, "[2]": {"conditions": "parkinsonian rat, xenon/O2 50%/50% inhaled, vs control N2/O2"}},
  "data": [
    {"smiles": "[Xe]", "note": "[xenon]", "values": [
      {"measurement": "appearance of the 4 types of dyskinesias (Lo, Li, Ol, Ax)", "setting": "animals breathing xenon/O2 (50%/50% by volume), amplitude and duration", "value": "greatly reduced"},
      {"measurement": "axial dyskinesias (Ax), kinetics following administration of L-Dopa (FIG. 3A)", "setting": "[1]", "value": "clear decrease"},
      {"measurement": "hind limb dyskinesias (Li), kinetics following administration of L-Dopa (FIG. 4A)", "setting": "[1]", "value": "significant decrease"},
      {"measurement": "locomotor dyskinesias (Lo), kinetics following administration of L-Dopa (FIG. 6A)", "setting": "[1]", "value": "large decrease"},
      {"measurement": "orolingual dyskinesias (Ol), kinetics following administration of L-Dopa (FIG. 5A)", "setting": "[1]", "value": "clear decrease"},
      {"measurement": "mean value of hind limb dyskinesias (Li) from 60 to 180 min (FIG. 4B)", "setting": "[2]", "value": "fewer hind limb dyskinesias"},
      {"measurement": "mean value of locomotor dyskinesias from 60 to 180 min (FIG. 6B)", "setting": "[2]", "value": "fewer locomotor dyskinesias"},
      {"measurement": "mean value of orolingual dyskinesias (Ol) from 60 to 180 min (FIG. 5B)", "setting": "[2]", "value": "fewer orolingual dyskinesias"},
      {"measurement": "mean value of the axial dyskinesias from 60 to 180 min (FIG. 3B)", "setting": "[2]", "value": "fewer axial dyskinesias"}
    ]}
  ]
}
